Reference: patent publication US20210324005A1, “Beta-Arrestin Effectors and Compositions and Methods of Use Thereof” (Trevena, Inc., priority 2020, published 2021)

What was measured:
D-Dimer response = assay: Reduction in IAS and FAS D-Dimer response in patients with COVID-19 infection; format: in vivo, human; conditions: COVID-19 patients, infused at 12 mg/hr for up to 7 days
Method: D-Dimer formation is elevated in patients with ARDS and COVID. A study was performed to determine the ability of TRV027 to reduce the effects of D-Dimer formation. […] Each group was monitored for an IAS D-Dimer response (>30% reduction) and a FAS D-Dimer response (>30% reduction). In the control group, 2/8 patients had greater than a 30% reduction in the IAS D-Dimer response and 1/7 patients had greater than a 30% reduction in the FAS D-Dimer response. […] Therefore, the data illustrates the effect of a peptide as provided for herein can have on the reduction in the D-Dimer response. It is anticipated that the reduction in the D-Dimer response as measured by these assays will lead to clinical benefit in patients that are infected and/or hospitalized with COVID-19.

rat AT1aR = molecular target: T1, rat AT1aR (Rattus norvegicus, UniProt P25095); assay: PathHunter β-arrestin-2 recruitment assay, rat AT1aR; format: cell-based; conditions: PathHunter β-arrestin HEK293 cells; inactive = EC50 greater than 10 uM
T1 sequence (P25095 1-359): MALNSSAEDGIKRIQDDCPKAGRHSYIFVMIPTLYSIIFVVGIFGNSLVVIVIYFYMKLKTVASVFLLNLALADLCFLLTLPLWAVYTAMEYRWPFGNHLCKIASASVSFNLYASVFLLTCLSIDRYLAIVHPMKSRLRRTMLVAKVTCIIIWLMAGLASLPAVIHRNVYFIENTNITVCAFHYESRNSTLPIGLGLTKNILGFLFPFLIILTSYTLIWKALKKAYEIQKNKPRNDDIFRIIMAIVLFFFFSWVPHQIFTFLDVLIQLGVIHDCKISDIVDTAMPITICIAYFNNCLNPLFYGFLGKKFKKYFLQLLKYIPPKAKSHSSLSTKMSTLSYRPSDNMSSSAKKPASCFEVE
Method: The proximal event in β-arrestin function mediated by GPCRs is recruitment to receptors following ligand binding and receptor phosphorylation by GRK's. Thus, the measure of β-arrestin recruitment was used to determine ligand efficacy for β-arrestin function.
B-arrestin-2 recruitment to the human and rat angiotensin 2 type 1 receptor (human AT1R and rat AT1aR, respectively) was measured with the PathHunter™ β-arrestin assay (DiscoveRx Corporation, Fremont Calif.). Cells, plasmid(s), and detection reagent(s) were purchased from DiscoveRx, and assays were performed per the manufacturer's instructions. Human AT1R and rat AT1aR were cloned into the pCMV-ProLink vector, verified by sequencing, and transfected into PathHunter β-arrestin HEK293 cells. Stably transfected clonal cell lines were selected with Hygromycin and G418. These clonal cell lines were used for all experiments.
For assays, 25,000 cells were seeded per well in 96-well microplates in volumes of 90 μL and allowed to grow overnight at 37° C. in 5% CO2. Peptides provided herein were dissolved in deionized water to a concentration of 1 mM. […] The microplates were then incubated at room temperature for 60 minutes, and then luminescence was measured using a NOVOstar microplate reader purchased from BMG Labtech. B-arrestin-2 recruitment to receptors was measured as relative luminescence intensity expressed in arbitrary units.

[1] = molecular target: T2, rat angiotensin 2 type 1 receptor (rat, UniProt P25095 1-359); assay: cell-based or functional assay
T2 sequence (looked up): T1 sequence (P25095 1-359)

[2] = molecular target: T3, human angiotensin 2 type 1 receptor (human, UniProt P30556 1-359); assay: cell-based or functional assay
T3 sequence (looked up): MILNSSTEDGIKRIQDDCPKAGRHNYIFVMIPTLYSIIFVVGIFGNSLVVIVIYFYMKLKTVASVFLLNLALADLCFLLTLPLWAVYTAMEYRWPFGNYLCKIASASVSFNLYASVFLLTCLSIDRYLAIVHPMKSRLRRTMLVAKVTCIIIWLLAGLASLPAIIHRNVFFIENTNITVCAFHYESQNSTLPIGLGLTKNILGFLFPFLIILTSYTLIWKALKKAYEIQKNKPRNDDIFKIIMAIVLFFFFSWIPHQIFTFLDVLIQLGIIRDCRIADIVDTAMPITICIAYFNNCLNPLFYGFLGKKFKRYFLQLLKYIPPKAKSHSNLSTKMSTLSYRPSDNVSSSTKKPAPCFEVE

CC[C@H](C)[C@H](NC(=O)[C@H](Cc1ccc(O)cc1)NC(=O)[C@@H](NC(=O)[C@H](CCCNC(=N)N)NC(=O)CNC)C(C)C)C(=O)N[C@@H](Cc1cnc[nH]1)C(=O)N1CCC[C@H]1C(=O)N[C@H](C)C(=O)O [SEQ ID NO: 27, Sar-Arg-Val-Tyr-Ile-His-Pro-D-Ala-OH]
patients with greater than 30% reduction in the FAS D-Dimer response (D-Dimer response): 4 out of 9 | patients with greater than 30% reduction in the IAS D-Dimer response (D-Dimer response): 5 out of 11

CCCCC(=O)N(Cc1ccc(-c2ccccc2-c2nnn[nH]2)cc1)[C@H](C(=O)O)C(C)C [Valsartan]
rat AT1aR b-arrestin2 EC50 (M) (rat AT1aR): inactive

B1: SEQ ID NO: 44 (NMAla-Arg-Val-Tyr-Ile-His-Pro-D-Ala-OH) (peptide)
peptide: ARVYIHPA
modifications: NMAla (N-Methyl-L-alanine) at X1; D-Ala at X8
b-arrestin2 Max (%) [1]: 71.9% | b-arrestin2 Max (%) [2]: 47.3%
